Measured values taken from ChEMBL document CHEMBL5050844 (2019).
Blank lines part the entries; values can stand above or below the compound they belong to.

Legend:
[1] = Induction of anti-CD3/CD28 antibodies-stimulated human T cell activation at 1 uM assessed fold increase in IL-2 secretion measured by ELISA assay; assay type: functional, T cell line
[2] = Induction of anti-CD3 antibodies-stimulated human T cell activation at 1 uM assessed fold increase in CD25 expression measured by ELISA assay; assay type: functional, T cell line; further: reference of the scale not given here
[3] = Induction of anti-CD3 antibodies-stimulated human T cell activation at 1 uM assessed fold increase in IL-2 secretion measured by ELISA assay; assay type: functional, T cell line; further: reference of the scale not given here
[4] = molecular target: E3 ubiquitin-protein ligase CBL-B (Homo sapiens, UniProt Q13191); assay: Inhibition of N-terminal Avi-tagged human CBL-B (36 to 427 residues) incubated with 60 nM Src kinase for 1.5 hrs followed by incubation with fluorescently labeled UbcH5B-Ub for 1 hr and measured by TR-FRET assay; assay type: single protein
Sequence of E3 ubiquitin-protein ligase CBL-B (Q13191 whole entry, the tested form may be a part): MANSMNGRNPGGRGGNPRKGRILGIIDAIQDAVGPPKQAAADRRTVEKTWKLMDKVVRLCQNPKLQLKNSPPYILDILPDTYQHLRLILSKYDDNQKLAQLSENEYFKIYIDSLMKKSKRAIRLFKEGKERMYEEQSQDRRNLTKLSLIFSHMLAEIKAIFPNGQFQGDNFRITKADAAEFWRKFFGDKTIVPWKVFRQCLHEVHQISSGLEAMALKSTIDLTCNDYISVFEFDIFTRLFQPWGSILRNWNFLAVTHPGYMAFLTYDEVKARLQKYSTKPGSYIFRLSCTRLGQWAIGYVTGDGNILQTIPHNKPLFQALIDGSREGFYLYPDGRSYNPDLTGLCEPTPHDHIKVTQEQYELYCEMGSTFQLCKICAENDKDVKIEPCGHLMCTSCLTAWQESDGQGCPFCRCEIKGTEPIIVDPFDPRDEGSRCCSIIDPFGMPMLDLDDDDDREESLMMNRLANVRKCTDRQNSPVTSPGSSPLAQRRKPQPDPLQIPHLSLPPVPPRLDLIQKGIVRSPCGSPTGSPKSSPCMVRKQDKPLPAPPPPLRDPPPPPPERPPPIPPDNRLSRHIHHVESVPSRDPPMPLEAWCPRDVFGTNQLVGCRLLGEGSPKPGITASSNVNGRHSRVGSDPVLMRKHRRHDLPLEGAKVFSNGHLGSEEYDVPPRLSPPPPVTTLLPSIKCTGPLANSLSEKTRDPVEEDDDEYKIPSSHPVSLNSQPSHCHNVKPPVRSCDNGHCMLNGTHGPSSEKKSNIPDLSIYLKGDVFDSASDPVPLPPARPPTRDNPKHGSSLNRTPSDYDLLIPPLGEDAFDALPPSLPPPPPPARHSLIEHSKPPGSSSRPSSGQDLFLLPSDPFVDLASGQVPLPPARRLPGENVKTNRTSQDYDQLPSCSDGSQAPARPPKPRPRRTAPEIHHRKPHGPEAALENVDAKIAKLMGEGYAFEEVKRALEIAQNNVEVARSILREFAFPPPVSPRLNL

[5] = Induction of anti-CD3/CD28 antibodies-stimulated human T cell activation at 1 uM assessed fold increase in CD25 expression measured by ELISA assay; assay type: functional, T cell line
[6] = Induction of anti-CD3/CD28 antibodies-stimulated human T cell activation at 0.3 uM assessed fold increase in CD25 expression measured by ELISA assay; assay type: functional, T cell line
[7] = Induction of anti-CD3/CD28 antibodies-stimulated human T cell activation at 0.3 uM assessed fold increase in IL-2 secretion measured by ELISA assay; assay type: functional, T cell line

IC50 [4]: < 100 nM
SMILES: CN1CCN(Cc2cc3c(c(C(F)(F)F)c2)CN(c2cccc(C4(Cc5nncn5C)COC4)c2)C3=O)CC1
fold change (FC) [1]: >=7.5 | fold change (FC) [2]: >=1.001 | fold change (FC) [3]: >=0.201 | fold change (FC) [5]: 1.31 | fold change (FC) [6]: 1.31 | fold change (FC) [7]: 2.51

IC50 [4]: < 100 nM
SMILES: CN1CCC(=O)C(Cc2cc3c(c(C(F)(F)F)c2)CN(c2cccc(C4(Cc5nncn5C)COC4)c2)C3=O)C1 (stereo not drawn)
fold change (FC) [1]: >=7.5 | fold change (FC) [2]: >=1.001 | fold change (FC) [3]: >=0.201 | fold change (FC) [5]: 1.01 | fold change (FC) [6]: 1.01 | fold change (FC) [7]: >=7.5

SMILES: Cn1cnnc1[C@@H](F)C1(c2cccc(N3Cc4c(cc(CN5[C@H]6CC[C@H]5CC(F)C6)cc4C(F)(F)F)C3=O)c2)COC1 (stereo partly drawn)
fold change (FC) [1]: >=7.5 | fold change (FC) [2]: 0.801 | fold change (FC) [3]: >=0.201 | IC50 [4]: < 100 nM | fold change (FC) [5]: >=1.76 | fold change (FC) [6]: >=1.76 | fold change (FC) [7]: 2.51

IC50 [4]: < 100 nM
SMILES: Cc1conc1CC1(c2cccc(NC(=O)c3cc(CN4CC[C@H](O)C4)nc(C4CC4)n3)c2)COC1
fold change (FC) [1]: >=7.5 | fold change (FC) [2]: >=1.001 | fold change (FC) [3]: >=0.201 | fold change (FC) [5]: 1.31 | fold change (FC) [6]: 1.31 | fold change (FC) [7]: >=7.5

IC50 [4]: < 100 nM
SMILES: Cn1cc2c(n1)CCCN2Cc1cc2c(c(C(F)(F)F)c1)CN(c1cccc(C3(Cc4nncn4C)COC3)c1)C2=O
fold change (FC) [1]: >=7.5 | fold change (FC) [2]: >=1.001 | fold change (FC) [3]: >=0.201 | fold change (FC) [5]: 1.31 | fold change (FC) [6]: 1.01 | fold change (FC) [7]: 5

IC50 [4]: < 100 nM
SMILES: Cn1cnnc1CC1(c2cccc(N3Cc4c(cc(CN5CCCC5)nc4C4CC4)C3=O)c2)COC1
fold change (FC) [1]: 2.51 | fold change (FC) [2]: <=0.6 | fold change (FC) [3]: <=0.05 | fold change (FC) [5]: 1.01 | fold change (FC) [6]: 1.01 | fold change (FC) [7]: 1.01

IC50 [4]: < 100 nM
SMILES: CCOC1CCCN(Cc2cc3c(c(C(F)(F)F)c2)CN(c2cccc(C4(Cc5nncn5C)COC4)c2)C3=O)C1 (stereo not drawn)
fold change (FC) [1]: >=7.5 | fold change (FC) [2]: >=1.001 | fold change (FC) [3]: >=0.201 | fold change (FC) [5]: 1.51 | fold change (FC) [6]: 1.51 | fold change (FC) [7]: >=7.5

IC50 [4]: < 100 nM
SMILES: C[C@H](c1cc2c(c(C(F)(F)F)c1)CN(c1cccc(C3(Cc4nncn4C)COC3)c1)C2=O)N1CCC2(CC1)CC2
fold change (FC) [1]: >=7.5 | fold change (FC) [2]: >=1.001 | fold change (FC) [3]: >=0.201 | fold change (FC) [5]: 1.01 | fold change (FC) [6]: 1.01 | fold change (FC) [7]: >=7.5

IC50 [4]: < 100 nM
SMILES: Cn1cnnc1CC1(c2cccc(NC(=O)c3cc(CN4CCC4)nc(C4CC4)n3)c2)COC1
fold change (FC) [1]: 5 | fold change (FC) [2]: 0.801 | fold change (FC) [3]: 0.051 | fold change (FC) [5]: 1.31 | fold change (FC) [6]: 1.01 | fold change (FC) [7]: 2.51

IC50 [4]: < 100 nM
SMILES: C[C@H](c1cc2c(c(C(F)(F)F)c1)CN(c1cccc(C3([C@H](F)c4nncn4C)COC3)c1)C2=O)N1CCC2(CC2)C1 (single isomer, unassigned)
fold change (FC) [1]: >=7.5 | fold change (FC) [2]: >=1.001 | fold change (FC) [3]: >=0.201 | fold change (FC) [5]: >=1.76 | fold change (FC) [6]: >=1.76 | fold change (FC) [7]: >=7.5

IC50 [4]: < 100 nM
SMILES: Cn1cnnc1CC1(c2cccc(N3Cc4c(cc(CN5CCOCC5)cc4C(F)(F)F)C3=O)c2)COC1
fold change (FC) [1]: >=7.5 | fold change (FC) [2]: >=1.001 | fold change (FC) [3]: >=0.201 | fold change (FC) [5]: 1.31 | fold change (FC) [6]: 1.31 | fold change (FC) [7]: 2.51

IC50 [4]: < 100 nM
SMILES: Cc1cc(C(=O)Nc2cccc(C(C)(C)Cc3nncn3C)c2)nc(C2CC2)n1
fold change (FC) [1]: >=7.5 | fold change (FC) [2]: 0.801 | fold change (FC) [3]: 0.101 | fold change (FC) [5]: 1.31 | fold change (FC) [6]: 1.31 | fold change (FC) [7]: 5

IC50 [4]: < 100 nM
SMILES: CN1CCN(c2cc3c(c(C(F)(F)F)c2)CN(c2cccc(C4(Cc5nncn5C)COC4)c2)C3=O)C(=O)C1
fold change (FC) [1]: 1.01 | fold change (FC) [2]: 0.801 | fold change (FC) [3]: 0.051 | fold change (FC) [5]: 1.01 | fold change (FC) [6]: 1.01 | fold change (FC) [7]: 1.01

IC50 [4]: < 100 nM
SMILES: Cn1cnnc1CC1(c2cccc(N3Cc4c(cc(CN5CCCC(F)(F)CC5)cc4C(F)(F)F)C3=O)c2)COC1
fold change (FC) [1]: >=7.5 | fold change (FC) [2]: >=1.001 | fold change (FC) [3]: >=0.201 | fold change (FC) [5]: 1.01 | fold change (FC) [6]: 1.01 | fold change (FC) [7]: >=7.5

IC50 [4]: < 100 nM
SMILES: C[C@H](Cc1nncn1C)c1cc(C2CC2)nc(N2Cc3c(cccc3C(F)(F)F)C2=O)c1
fold change (FC) [1]: 2.51 | fold change (FC) [2]: 0.801 | fold change (FC) [3]: 0.101 | fold change (FC) [5]: 1.01 | fold change (FC) [6]: 1.01 | fold change (FC) [7]: 1.01

IC50 [4]: < 100 nM
SMILES: C[C@H](c1cc2c(c(C(F)(F)F)c1)CN(c1cccc(C3(Cc4nncn4C)COC3)c1)C2=O)N1CC(F)C1
fold change (FC) [1]: 5 | fold change (FC) [2]: >=1.001 | fold change (FC) [3]: 0.101 | fold change (FC) [5]: 1.51 | fold change (FC) [6]: 1.31 | fold change (FC) [7]: 2.51

IC50 [4]: < 100 nM
SMILES: Cn1cnnc1CC1(c2cccc(N3Cc4c(cc(CN5CCOC6(CCC6)C5)cc4C(F)(F)F)C3=O)c2)COC1
fold change (FC) [1]: >=7.5 | fold change (FC) [2]: >=1.001 | fold change (FC) [3]: >=0.201 | fold change (FC) [5]: 1.01 | fold change (FC) [6]: 1.01 | fold change (FC) [7]: >=7.5

IC50 [4]: < 100 nM
SMILES: Cn1cnnc1CC1(c2cccc(N3Cc4c(cc(C(O)c5ccccc5)cc4C(F)(F)F)C3=O)c2)COC1 (stereo not drawn)
fold change (FC) [1]: >=7.5 | fold change (FC) [2]: >=1.001 | fold change (FC) [3]: >=0.201 | fold change (FC) [5]: 1.31 | fold change (FC) [6]: 1.31 | fold change (FC) [7]: 5

IC50 [4]: < 100 nM
SMILES: Cn1cnnc1CC1(c2cccc(N3Cc4c(cc(CN5CC[C@H](c6ccccc6)C5)cc4C(F)(F)F)C3=O)c2)COC1
fold change (FC) [1]: >=7.5 | fold change (FC) [2]: >=1.001 | fold change (FC) [3]: >=0.201 | fold change (FC) [5]: 1.01 | fold change (FC) [6]: 1.01 | fold change (FC) [7]: 5

IC50 [4]: < 100 nM
SMILES: Cn1cnnc1CC1(c2cccc(N3Cc4c(cc(CN5CCCC56COC6)cc4C(F)(F)F)C3=O)c2)COC1
fold change (FC) [1]: 5 | fold change (FC) [2]: 0.801 | fold change (FC) [3]: 0.151 | fold change (FC) [5]: 1.31 | fold change (FC) [6]: 1.01 | fold change (FC) [7]: 1.01

IC50 [4]: < 100 nM
SMILES: Cc1cc(C(=O)Nc2cccc(C3(C(F)(F)c4nncn4C)CC3)c2)nc(C2CC2)n1
fold change (FC) [1]: 2.51 | fold change (FC) [2]: 0.601 | fold change (FC) [3]: 0.101 | fold change (FC) [5]: 1.01 | fold change (FC) [6]: 1.01 | fold change (FC) [7]: 1.01

IC50 [4]: < 100 nM
SMILES: Cn1cnnc1CC1(c2cccc(N3Cc4c(cc(CN5CC(F)C5(C)C)cc4C(F)(F)F)C3=O)c2)COC1 (stereo not drawn)
fold change (FC) [1]: 5 | fold change (FC) [2]: >=1.001 | fold change (FC) [3]: 0.101 | fold change (FC) [5]: 1.31 | fold change (FC) [6]: 1.31 | fold change (FC) [7]: 2.51

IC50 [4]: < 100 nM
SMILES: Cn1cnnc1CC1(c2cccc(N3Cc4c(cc(C5=CCOC5)cc4C(F)(F)F)C3=O)c2)COC1
fold change (FC) [1]: 2.51 | fold change (FC) [2]: 0.801 | fold change (FC) [3]: 0.101 | fold change (FC) [5]: 1.31 | fold change (FC) [6]: 1.01 | fold change (FC) [7]: 2.51

IC50 [4]: < 100 nM
SMILES: CC(c1cc2c(c(C(F)(F)F)c1)CN(c1cccc(C3(Cc4nncn4C)COC3)c1)C2=O)N1CC(S(C)(=O)=O)C1 (stereo not drawn)
fold change (FC) [1]: 1.01 | fold change (FC) [2]: 0.601 | fold change (FC) [3]: 0.101 | fold change (FC) [5]: 1.01 | fold change (FC) [6]: 1.01 | fold change (FC) [7]: 1.01

IC50 [4]: < 100 nM
SMILES: Cn1cnnc1CC1(c2cccc(NC(=O)c3cc(CN4CCCCC4)nc(C4CC4)n3)c2)COC1
fold change (FC) [1]: >=7.5 | fold change (FC) [2]: >=1.001 | fold change (FC) [3]: >=0.201 | fold change (FC) [5]: >=1.76 | fold change (FC) [6]: >=1.76 | fold change (FC) [7]: >=7.5

IC50 [4]: < 100 nM
SMILES: Cn1cnnc1CC1(c2cccc(N3Cc4c(cc(CN5CCC6(CC6)C(F)(F)C5)cc4C(F)(F)F)C3=O)c2)COC1
fold change (FC) [1]: >=7.5 | fold change (FC) [2]: >=1.001 | fold change (FC) [3]: >=0.201 | fold change (FC) [5]: 1.31 | fold change (FC) [6]: 1.31 | fold change (FC) [7]: 2.51

IC50 [4]: < 100 nM
SMILES: Cc1cc(C(=O)Nc2cc(C3CC3)cc(C3(Cc4nncn4C)COC3)c2)nc(C2CC2)n1
fold change (FC) [1]: >=7.5 | fold change (FC) [2]: >=1.001 | fold change (FC) [3]: >=0.201 | fold change (FC) [5]: 1.31 | fold change (FC) [6]: 1.01 | fold change (FC) [7]: 2.51

IC50 [4]: < 100 nM
SMILES: Cc1cc(C(=O)Nc2cccc(C3(Cc4nncn4C)CCC3)c2)nc(C2CC2)n1
fold change (FC) [1]: >=7.5 | fold change (FC) [2]: >=1.001 | fold change (FC) [3]: 0.051 | fold change (FC) [5]: 1.31 | fold change (FC) [6]: 1.31 | fold change (FC) [7]: >=7.5

IC50 [4]: < 100 nM
SMILES: CC1C(C(F)(F)F)CCN1Cc1cc2c(c(C(F)(F)F)c1)CN(c1cccc(C3(Cc4nncn4C)COC3)c1)C2=O (stereo not drawn)
fold change (FC) [1]: >=7.5 | fold change (FC) [2]: >=1.001 | fold change (FC) [3]: 0.051 | fold change (FC) [5]: 1.31 | fold change (FC) [6]: 1.01 | fold change (FC) [7]: 5
